How the values were obtained:
Pol β = Pol β (Homo sapiens, UniProt P06746); assay type: biochemical
Protocol: It is worth noting that the well should be full to obtain accurate fluorescence data (approximately 380 μL). […] To determine the polymerase activity in the presence of each inhibitor, a solution of 13 (3.8 μL, 5 μM) and dTTP (3.8 μL, 10 mM) were also added (to make final [13]=50 nM and 100 μM of dTTP). The plates were immediately placed in the microtiter plate reader and the measurements were recorded.
It is worth noting that the well should be full in order to get accurate fluorescence data (approximately 380 μL). The solutions of inhibitors (40×) in acetonitrile obtained after pentenyl deprotection (10 μL) were transferred to the wells containing Pol β and incubated for 20 min. To determine the polymerase activity of enzyme in the presence of each inhibitor, solutions of ternary complex 13 (3.8 μL, 5 μM) and dTTP (3.8 μL, 10 mM) were also added (to make final 50 nM of 13 and 100 μM of dTTP). The plates were placed immediately in the microtiter plate reader Cary Eclipse Varian and the measurements started.
The inhibitor solution (40×, 10 μL) was added to the first well and preincubated for 20 min. At this time, the same portion of inhibitor was added to the second well. […] Once the inhibitor was added to the fifth well, solutions of ternary complex 13 (3.8 pit, 5 μM) and dTTP (3.8 μL, 10 mM) were also added and the fluorescence measurement was started immediately.

[1] = system: DU145 prostate cancer cells; assay type: cell-based; settings: for DU145 cells surviving treatment: 40 μM, FIG. 13A
Protocol: DU 145 cells were obtained from the American Type Culture Collection (ATCC, HTB-81, Manassas, Va.) and maintained in RPMI 1640 culture medium (Sigma-Aldrich R8758, St. Louis, Mo.), supplemented with 10% fetal bovine serum (Sigma-Aldrich F6178, St. Louis, Mo.). Cultures were grown at 37° C. in a humidified atmosphere of 5% carbon dioxide without any antibiotics and subcultured when they reached confluence. For clonogenic survival analysis, the appropriate number of cells were grown in standard 6-well tissue culture dishes in the growth media (2 mL per well). After 2 days, the cells were treated with Pol β inhibitors (3a or 18) by addition of sterile stock solution in water directly to the growth media to the desired final concentrations. Cells were treated similarly with methyl methanesulfonate (MMS, Sigma-Aldrich, St. Louis, Mo.). For combined treatments, 18 was added to the cells first followed by MMS. The compounds remained present throughout the entire assay. Two weeks after the treatment, the cells were fixed and stained with 0.2% solution of crystal violet in 50% methanol. Colonies with ≧50 cells were then counted. All treatments were carried out in triplicate.
[…]. Consequently, DU145 cell survival was measured as a function of MMS concentration, without and with 18 at a concentration (20 μM) where the proinhibitor itself results in approximately 45% cell death. […] […].

[2] = system: Klenow fragment of DNA polymerase 1; assay: Klenow exo- strand displacement synthesis fluorescence assay (selectivity); assay type: biochemical, E. coli; settings: 10 μM, same conditions as Pol β, FIG. 9
Protocol: […]. The volume of the solution in each well is approximately 400 μL. Pol β (final concentration, 10 nM) or Klenow exo-(final concentration 5 nM) is added and the measurement of the fluorescence is started immediately.
More than one dozen polymerases exist in a human cell. Because there is not access to each of these, the Klenow fragment of DNA polymerase 1 from E. coli was used as a primitive test of the inhibitor's (3a) selectivity. […]. However, the efficacy of the 1,4-dicarbonyl containing inhibitor (1a) was compromised by thiols, presumably due to nucleophilic addition (FIG. 10). […]

[3] = system: DU145 lysate lyase activity; assay: Lyase activity of DU145 cell extracts (lysates) on 3′-32P-15
Protocol: The aliquots were kept on ice for 1 h before mixing with loading buffer (5 μL). The samples were analyzed by 20% denaturing PAGE and quantified using a phosphorimager.
Cells were harvested by mild trypsinzation. The cells were then washed three times with phosphate buffered saline. Cell pellets were suspended in 1× Passive Lysis Buffer (PBL, Promega Corporation, E1941, Madison, Wis.) at concentration of 1×10^7 cells per mL and frozen in aliquots at −80° C. Protein concentrations were determined by Bio-Rad protein assay dye (Bio-Rad, 500-0006, Hercules, Calif.) according to the manufacturer's protocol and using bovine serum albumin as a standard.

Pol β lyase activity = Pol β lyase activity (Homo sapiens, UniProt P06746); assay: Pol β lyase (dRPase) activity on 3′-32P-15 by gel electrophoresis
Protocol: The ability of 1a to inhibit Pol β's dRPase activity was examined using 3′-^32P-15 in which the oligonucleotide containing dRP was labeled.
The DNA substrate was added to the reaction following preincubation of 1a with Pol β and subsequent 100-fold dilution. The lyase reaction was monitored by gel electrophoresis.

[4] = system: mouse embryonic fibroblast cell lysates lyase activity; assay: Lyase (dRPase) activity of mouse embryonic fibroblast lysates on 3′-32P-15; assay type: biochemical; settings: for Rate of product formation: inhibitor + (18, 50 μM), 32 μg protein
[5] = Conversion of bisacetate proinhibitor to 3a in DU145 lysate (TLC analysis); assay type: in vitro ADME

In the case of COc1cc(Cl)c(/C=N/OC2C[C@H](n3cc(C)c(=O)[nH]c3=O)O[C@@H]2COP(=O)(OC)OCC2CC(O)OC2O)c(Cl)c1O (stereo partly shown) [2a], the “effect on Pol β activity in strand displacement assay” value (Pol β) is reported as “comparable inhibition activity as 1a”.
For COc1cc(Cl)c(/C=N/OC2C[C@H](n3cc(C)c(=O)[nH]c3=O)O[C@@H]2COP(=O)(O)OCC2CC(O)OC2O)c(Cl)c1O (stereo partly shown) [3a], the “DU145 cells surviving treatment” value [1] was 12%, the “effect on Klenow fragment's activity” value [2] was “no effect” and the lyase activity remaining ([3]; 150 μM) was “more than 30%”.
For COc1cc(Cl)c(/C=N/OC2C[C@H](n3cc(C)c(=O)[nH]c3=O)O[C@@H]2COP(=O)(OC)OCCC=O)c(Cl)c1O (stereo partly shown) [compound 16], the “effect on Pol β lyase activity” value (Pol β lyase activity) was “had no effect”.
For COc1cc(Cl)c(/C=N/OC2C[C@H](n3cc(C)c(=O)[nH]c3=O)O[C@@H]2COP(=O)(O)OCC2CC(OC(C)=O)OC2OC(C)=O)c(Cl)c1O (stereo partly shown) [compound 18], the “MMS concentration at and above which clear potentiation of cytotoxicity is seen” value [1] was at least 0.2 mM, the cell death ([1]; 20 μM, proinhibitor alone) was “approximately 45%” and the “DU145 cells surviving treatment” value [1] was “approximately 0.01%”. The “inhibition of DU145 lysate lyase activity” value ([3]; 150 μM) was “Almost complete inhibition”, the “preincubation time by which inactivation was complete” value ([3]; 18 at 50 μM, preincubation varied 5-60 min) was at most 15 min and the “lyase activity inhibition compared with 3a” value ([3]; 1 h preincubation, FIG. 11) was “significantly greater”. For the same compound, the “Rate of product formation” value ([4]; Pol β - lysate) was 5.5 ± 1.5 ×10^−1 % · min^−1, the “Rate of product formation” value ([4]; Pol β wt lysate) was 9.2 ± 2.4 ×10^−1 % · min^−1 and the “reduction of lyase activity” value ([4]; Pol β- cell lysates, 18 at 50 μM) was “less than 30%”. The “Rate of product formation” value ([4]; Pol β/λ - lysate) was 11.0 ± 4.0 ×10^−1 % · min^−1, the “Rate of product formation” value ([4]; Pol λ - lysate) was 9.1 ± 2.3 ×10^−1 % · min^−1 and the “Rate of product formation” value ([4]; Pol λ wt lysate, aliquots at 2, 5, 10 min) was 12.4 ± 3.2 ×10^−1 % · min^−1. For the same compound, the “effect on lyase activity versus wild type cells” value ([4]; cells lacking Pol λ (Pol λ-), p=0.05) was “statistically indistinguishable”, the “effect on lyase activity versus Pol β- cells” value ([4]; double knock-out (Pol β-/Pol λ-) cells) was “within experimental error” and the “reduction of the rate of the lyase reaction” value ([4]; lysates from wild type cells, 18 at 50 μM) was about 2 fold. The “effect on Pol β lyase activity” value (Pol β lyase activity) was “had no effect” and the “time for conversion of bisacetate to 3a” value [5] was at most 5 min.
